Measurements published in patent US9682959B2, “Ethynyl derivatives” (Hoffmann-La Roche Inc., priority 2013, dated 2017).

Target: rat mGlu 5a receptor (Rattus norvegicus (Rat), UniProt P31424)
Experiment: MPEP binding / [Ca2+]i FLIPR measurement on mGlu 5a transfected EBNA cells, antagonists tested against 10 μM glutamate
Details: rat mGlu 5a receptor transiently transfected into EBNA cells; Ki calculated from IC50
Experimental: The pharmacological activity of the compounds was tested using the following method: cDNA encoding rat mGlu 5a receptor was transiently transfected into EBNA cells using a procedure described by E.-J. Schlaeger and K. Christensen (Cytotechnology 1998, 15, 1-13). [Ca^2+]i measurements were performed on mGlu 5a transfected EBNA cells after incubation of the cells with Fluo 3-AM (obtainable by FLUKA, 0.5 μM final concentration) for 1 hour at 37° C. followed by 4 washes with assay buffer (DMEM supplemented with Hank's salt and 20 mM HEPES. [Ca^2+]i measurements were done using a fluorometric imaging plate reader (FLIPR, Molecular Devices Corporation, La Jolla, Calif., USA). When compounds were evaluated as antagonists they were tested against 10 μM glutamate as agonist.
The inhibition (antagonists) curves were fitted with a four parameter logistic equation giving IC50, and Hill coefficient using the iterative non linear curve fitting software Origin (Microcal Software Inc., Northampton, Mass., USA).
The Ki values of the compounds tested are given. The Ki value is defined by the following formula:
[formula] in which the IC50 values are those concentrations of the compounds tested in μM by which 50% of the effect of compounds are antagonized. [L] is the concentration and the EC50 value is the concentration of the compounds in μM which brings about 50% stimulation.
The compounds of the present invention are mGluR5 receptor antagonists.

Chain of rat mGlu 5a receptor (P31424 other isoform, or with tags, fused parts or gaps): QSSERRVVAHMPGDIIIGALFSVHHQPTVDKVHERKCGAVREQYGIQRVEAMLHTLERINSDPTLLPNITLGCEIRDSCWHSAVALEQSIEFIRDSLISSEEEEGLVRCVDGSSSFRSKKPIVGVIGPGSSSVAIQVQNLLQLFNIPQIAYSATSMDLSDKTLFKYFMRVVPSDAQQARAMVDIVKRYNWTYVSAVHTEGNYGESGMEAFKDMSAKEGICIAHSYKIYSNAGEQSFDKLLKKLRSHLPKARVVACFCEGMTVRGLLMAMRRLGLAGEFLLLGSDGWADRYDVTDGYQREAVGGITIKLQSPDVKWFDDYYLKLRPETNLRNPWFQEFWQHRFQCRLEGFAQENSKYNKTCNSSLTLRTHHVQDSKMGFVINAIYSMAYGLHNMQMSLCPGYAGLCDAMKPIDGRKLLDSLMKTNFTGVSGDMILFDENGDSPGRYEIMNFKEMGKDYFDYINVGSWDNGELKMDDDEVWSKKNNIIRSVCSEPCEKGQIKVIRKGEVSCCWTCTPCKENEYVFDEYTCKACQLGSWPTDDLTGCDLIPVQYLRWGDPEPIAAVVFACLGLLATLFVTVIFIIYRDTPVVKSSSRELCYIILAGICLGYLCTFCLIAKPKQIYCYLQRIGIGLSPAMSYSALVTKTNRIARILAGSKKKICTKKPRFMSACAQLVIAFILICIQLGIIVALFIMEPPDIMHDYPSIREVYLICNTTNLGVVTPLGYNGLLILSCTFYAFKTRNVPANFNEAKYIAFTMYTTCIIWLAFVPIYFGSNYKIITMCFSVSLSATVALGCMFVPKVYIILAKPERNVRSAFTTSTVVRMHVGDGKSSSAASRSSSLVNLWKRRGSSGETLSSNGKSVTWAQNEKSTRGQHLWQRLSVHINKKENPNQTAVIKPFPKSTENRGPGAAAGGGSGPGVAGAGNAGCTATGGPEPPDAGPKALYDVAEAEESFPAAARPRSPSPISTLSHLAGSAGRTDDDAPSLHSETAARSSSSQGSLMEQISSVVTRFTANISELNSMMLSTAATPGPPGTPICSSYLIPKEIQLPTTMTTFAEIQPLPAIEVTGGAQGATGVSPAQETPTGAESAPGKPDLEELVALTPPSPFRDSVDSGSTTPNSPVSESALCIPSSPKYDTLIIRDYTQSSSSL

Work on `CN1C(=O)C(C)(C)N=C1c1ccc(C#Cc2cccc(F)c2)cn1` [Example 1, 2-[5-[2-(3-Fluorophenyl)ethynyl]-2-pyridyl]-3,5,5-trimethyl-imidazol-4-one] yielded a Ki of 18 nM.

`CN1C(=O)C(C)(C)N=C1c1ccc(C#Cc2ccccc2)cn1` [Example 2, 3,5,5-Trimethyl-2-[5-(2-phenylethynyl)-2-pyridyl]imidazol-4-one] gave a Ki of 38 nM.

Work on `CN1C(=O)C(C)(C)N=C1c1ccc(C#Cc2cccc(Cl)c2)cn1` [Example 3, 2-[5-[2-(3-Chlorophenyl)ethynyl]-2-pyridyl]-3,5,5-trimethyl-imidazol-4-one] yielded a Ki of 16 nM.

In the case of `CN1C(=O)C(C)(C)N=C1c1ncc(C#Cc2cccc(Cl)c2)cn1` [Example 4, 2-[5-[2-(3-Chlorophenyl)ethynyl]-2-pyrimidyl]-3,5,5-trimethyl-imidazol-4-one], the Ki is reported as 80 nM.

In the case of `CN1C(=O)C(C)(C)N=C1c1ncc(C#Cc2ccccc2)cn1` [Example 5, 3,5,5-Trimethyl-2-[5-(2-phenylethynyl)-2-pyrimidyl]imidazol-4-one], the Ki is reported as 281 nM.

In the case of `CN1C(=O)C(C)(C)N=C1c1ncc(C#Cc2cccc(F)c2)cn1` [Example 6, 2-[5-[2-(3-Fluorophenyl)ethynyl]-2-pyrimidyl]-3,5,5-trimethyl-imidazol-4-one], the Ki is reported as 280 nM.
